Common to all, as to assay type: cell-based
For one test, the system named is Pseudomonas aeruginosa. The experiment in a line: antimicrobial susceptibility testing by microscopic observation, circularity of the bacteria. As for the experimental part: (§1) In addition, when an examination is performed by using the bacteriological testing instrument 1, culture is performed by mixing a bacterial suspension prepared from a specimen with a culture fluid in the culture plate (for example, a culture plate which has 96 wells in total is used) 18. In order to perform the antimicrobial susceptibility testing, antimicrobial agents different from each other are set so as to be respectively contained in the culture fluids in each of the wells in particular concentrations. An order of the culturing is as follows. First, the bacterial suspension is introduced into the culture plate 18. Then, the bacterial suspension is in a state of being mixed with the culture fluid which is included in each of the wells, and the temperature controller 16 is set to a temperature of approximately 35° C. Furthermore, culture is performed by performing incubation such that the temperature of each of the wells in the culture plate 18 reaches the set temperature. Then, in the bacteriological testing instrument 1, while performing the incubation, the bacteria included in each of the wells can be monitored through the microscopic observation optical system. The microscopic observation may be performed for a set period of time from the start of the incubation till the end thereof by continuously monitoring the state of bacterial proliferation. In addition, the monitoring may be performed at the set time after setting appropriate time, and the monitoring result can be compared with the monitoring result when the incubation is started. In addition, similar to the bacteriological testing instrument in the related art, the turbidity of each of the wells may be measured through the turbidity measurement optical system while incubating the culture plate 18. The measured result may be compared with the monitored result of the microscopic observation optical system.
FIG. 22 is a view (graph) illustrating a result obtained by antimicrobial susceptibility testing with respect to meropenem of Pseudomonas aeruginosa. The graph acquires the circularity of the Pseudomonas aeruginosa in the image measured through the microscopic observation, and illustrates the time-dependent change thereof. The plurality of Pseudomonas aeruginosa are observed in one image, but the circularity of each of the Pseudomonas aeruginosa is acquired, and the value obtained by calculating an average value of the bacteria in the image is plotted. In addition, the circularity is a value calculated by 4π×(area)/(perimeter length)^2. When the bacteria have a completely circular shape, 4π×πr^2/(2πr) ^2=1 is satisfied, and when the bacteria is deviated from a completely circular shape, the perimeter length increases, and thus, the circularity value decreases.
In the graph, in a case where there is no the antimicrobial agent to be plotted by a “rhomboidal (diamond) shape”, the circularity of the Pseudomonas aeruginosa was hardly changed from the start of culture. […] In addition, when the concentration of meropenem of which the decrease in circularity is stopped is 0.5 μg/mL or greater, it is determined that the Pseudomonas aeruginosa becomes extinct. In a case where the bacteria are not extinct, the shape of the bacteria changes. […] The exemplary embodiment is an example in which the time-dependent change of the circularity of the bacteria is plotted instead of plotting the time-dependent change of the areas of the bacteria. However, in this manner, by plotting the time-dependent change of the feature values that become an index for indicating a degree of proliferation or growth of the bacteria in addition to the bacterial numbers or the areas of the bacteria, not only the minimum inhibitory concentration (MIC) of the bacteria but also the minimum bactericidal concentration (MBC) can be determined.

Test [1] has as its system Staphylococcus aureus separated from the patient A. The experiment in a line: antimicrobial susceptibility testing by microscopic observation, areas of the bacteria. Particulars: for antimicrobial susceptibility determination (comparison with the break points): FIG. 20(a).
Excerpt: as §1, with “In” for “In addition, when an examination is performed by using the bacteriological testing instrument 1, culture is performed by mixing a bacterial suspension prepared from a specimen with a culture fluid in the culture plate (for example, a culture plate which has 96 wells in total is used) 18. In”
(§2) The processor determines whether the bacteria proliferate or the proliferation is interrupted under the corresponding culture condition, based on the microscopic image to which the above-described necessary treatments are performed. The determination whether or not the proliferation is performed, is performed by comparing with the information obtained based on the images at different times in the same container. More specifically, based on the image after the treatment illustrated in FIGS. 4 to 6, for example, the areas of the bacteria are calculated, and it is determined whether or not the proliferation is performed by creating the graph as illustrated in FIG. 12.
(§3) The processor combines the information on whether or not the proliferation is performed under the culture condition with a combination of a certain concentration of the antimicrobial agent, and determines the minimum concentration of the antimicrobial agent (MIC, minimum inhibitory concentration) which becomes interruption of proliferation. Here, the MIC determination is performed with respect to all of the wells provided on the culture plate 21. For example, there are 96 wells on the culture plate 21, and various types of antimicrobial agents having different concentrations (for example, 0 μg/mL, 0.5 μg/mL, 1 μg/mL, 2.0 μg/mL, 4.0 μg/mL, 8.0 μg/mL, 16.0 μg/mL, . . . ) enter the wells.

Test [2] has as its system Staphylococcus aureus separated from the patient B. Described as above. To be noted: for antimicrobial susceptibility determination (comparison with the break points): FIG. 20(b).
Excerpt: as §1, with “In” for “In addition, when an examination is performed by using the bacteriological testing instrument 1, culture is performed by mixing a bacterial suspension prepared from a specimen with a culture fluid in the culture plate (for example, a culture plate which has 96 wells in total is used) 18. In”
as §2, §3

Test [3] has as its system Enterococcus faecalis (ATCC29212). The description is as above. Further details: key: Waiting is determined, and “W” is displayed; Growth is determined, and “G” is displayed; Inhibit is determined, and “I” is displayed. As for the experimental part:
as §1, with “The microscopic observation may be performed for a set period of time from the start of the incubation till the end thereof by continuously monitoring the state of bacterial proliferation. In addition, the monitoring may be performed at the set time after setting appropriate time, and the monitoring result can be compared with the monitoring result when the incubation is started.” left out
The processor determines whether the bacteria proliferate or the proliferation is interrupted under the corresponding culture condition, based on the microscopic image to which the above-described necessary treatments are performed. […] More specifically, based on the image after the treatment illustrated in FIGS. 4 to 6, for example, the areas of the bacteria are calculated, and it is determined whether or not the proliferation is performed by creating the graph as illustrated in FIG. 12. […]

Test [4] has as its system E coli separated from a patient A. Described as above. The method, then:
as §1, §2
as §3, with “wells. Therefore, the minimum concentration (MIC) of the antimicrobial agent which becomes interruption of proliferation can be ascertained.” for “wells.”
(§4) The processor further determines whether the bacteria of the examination target is sensitive (S), resistant (R), and intermediate (I) with respect to the corresponding antimicrobial agent by comparing with a break point (a break point of Clinical and Laboratory Standards Institute (CLSI), a break point of Japanese Society of Chemotherapy, or a break point of EUCAST) which is stored as reference data. […]

In test [5] the test system is E coli separated from a patient B. The test is described as above. As for the experimental part: as §1, §2
as §3, with “wells. Therefore, the minimum concentration (MIC) of the antimicrobial agent which becomes interruption of proliferation can be ascertained.” for “wells.”
as §4

In the next test the test system is E coli (ATCC25922). The experiment in a line: antimicrobial susceptibility testing by microscopic observation (binarized images). To be noted: ampicillin 2 μg/mL in culture fluid; 180 minutes from the start of culture (FIG. 5(b)). The method, then: as §1, with “C. […]” for “C. Furthermore, culture is performed by performing incubation such that the temperature of each of the wells in the culture plate 18 reaches the set temperature.”, “system. […]” for “system. The microscopic observation may be performed for a set period of time from the start of the incubation till the end thereof by continuously monitoring the state of bacterial proliferation. In addition, the monitoring may be performed at the set time after setting appropriate time, and the monitoring result can be compared with the monitoring result when the incubation is started.”, “system. […]” for “system.”

Values joined by “and” are separate entries in the source; they are usually repeats but may differ in a detail not shown here. Equal entries are not always repeated. Some results are limits rather than exact numbers.

We go through four compounds from US11851642B2, “Test device” (HITACHI HIGH-TECH CORPORATION, priority 2015, dated 2023).

As to `C[C@@H](O)[C@H]1C(=O)N2C(C(=O)O)=C(S[C@@H]3CN[C@H](C(=O)N(C)C)C3)[C@H](C)[C@H]12` [meropenem], the “concentration at which the circularity continues to decrease: bacteria elongated but not become extinct yet” value in the test on Pseudomonas aeruginosa (FIG. 22) was 0.125 µg/mL and 0.25 µg/mL. The “concentration at which the decrease in circularity is stopped: bacteria become extinct (can be estimated as MBC)” value in the test with Pseudomonas aeruginosa (FIG. 22) was ≥ 0.5 µg/mL. Also, the “time from the start of culture after which the circularity starts to decrease” value with Pseudomonas aeruginosa (meropenem 0.25 μg/mL, bacteria elongated (FIG. 22)) came to 90 min. In addition, the “time-dependent change of the circularity” value in the test on Pseudomonas aeruginosa (meropenem 0.5 μg/mL (FIG. 22)), in the test on Pseudomonas aeruginosa (meropenem 1.0 μg/mL (FIG. 22)) and in the test on Pseudomonas aeruginosa (meropenem 2.0 μg/mL (FIG. 22)) was “slightly decreases” in each case.
As to `CN[C@H](CC(C)C)C(=O)N[C@H]1C(=O)N[C@@H](CC(N)=O)C(=O)N[C@H]2C(=O)N[C@H]3C(=O)N[C@H](C(=O)N[C@H](C(=O)O)c4cc(O)cc(O)c4-c4cc3ccc4O)[C@H](O)c3ccc(c(Cl)c3)Oc3cc2cc(c3O[C@@H]2O[C@H](CO)[C@@H](O)[C@H](O)[C@H]2O[C@H]2C[C@](C)(N)[C@H](O)[C@H](C)O2)Oc2ccc(cc2Cl)[C@H]1O` [vancomycin], the “antimicrobial susceptibility determination (comparison with the break points)” value in test [1] was “sensitivity”; in test [2] it was “Intermediate”. The “concentration at which the proliferation is performed” value was 0.25 µg/mL in test [1] (images within 300 minutes from the start of culture (FIG. 18, FIG. 19(a))) and ≤ 0.5 µg/mL in test [2] (images within 300 minutes from the start of culture (FIG. 18, FIG. 19(b))).
As to `C[C@H]1COc2c(N3CCN(C)CC3)c(F)cc3c(=O)c(C(=O)O)cn1c23` [levofloxacin], the proliferation determination result is reported as “G” in test [3] (levofloxacin 0.5 μg/mL, after 120 minutes (FIG. 13)); “I” in test [3] (levofloxacin 1.0 μg/mL, after 150 minutes (FIG. 13)); “I” in test [3] (levofloxacin 2.0 μg/mL, after 150 minutes (FIG. 13)).
As for `CC1(C)S[C@@H]2[C@H](NC(=O)[C@H](N)c3ccccc3)C(=O)N2[C@H]1C(=O)O` [ampicillin], the entries for the “antimicrobial susceptibility determination (comparison with the break points)” value in test [1] and in test [2] were “resistance” and “Intermediate”, respectively. In addition, the “sensitivity determination (comparison with the break points)” value in test [4] (FIG. 17(a)) was “durability”. In test [4] (all ampicillin conditions (FIG. 16(a))), the “proliferation determination result (MIC determination result)” value is recorded as “determined to proliferate”. The “time-dependent change of the areas of the bacteria (standardized by the areas at start of culture)” value in test [4] (ampicillin 512 μg/mL, compared to no antimicrobial agent (FIG. 15(a))) was “slightly increases”; in test [5] (ampicillin 4 μg/mL (FIG. 15(b))), “increase tends to be stopped”; in test [5] (ampicillin 8 μg/mL or greater (FIG. 15(b))) it was “area tends to decrease”. For the same compound, the “concentration at which the proliferation is interrupted (MIC determination result)” value in test [5] (after 180 minutes from the start of culture (FIG. 16(b))) is ≥ 8 µg/mL. In addition, the “state of the bacteria in the microscopic observation image” value with E coli (ATCC25922) is “elongated”.
